What was measured:
[1] = tested on: NCI-H929; assay: Alamar blue cytotoxicity assay NCI-H929; format: cell-based; settings: Homo sapiens, 72 hours, read-out: cellular cytotoxicity IC50 NCI-H929
Protocol: (§1) In order to determine the cellular potency of the compounds, the cytotoxicity of each compound was determined against a range of cell lines. Standard cytotoxicity methods were performed as follows: cells were seeded in 96-well plates appropriately for their doubling time (2-5000 cells per well) in RPMI or DMEM media containing 10% FCS and incubated overnight at 37° C., 5% CO2. The media was removed and 100 μl fresh media containing increasing concentrations of appropriate compound was added and the cells incubated for 72 hours at 37° C., 5% CO2. A 10% stock of alamar blue (Roche, Lewes, United Kingdom) was prepared in medium and 100 μl added to the cells which were incubated for 2 hours. Absorbance was measured on the Wallac Victor 2 1420 multi-label counter at 544-595 nm.

[2] = biological target: CYP3A4 (Homo sapiens (Human), UniProt P08684); assay: CYP3A4 inhibition, human liver microsomes, midazolam; format: in vitro ADME
Protocol: Six test compound concentrations (0.05, 0.25, 0.5, 2.5, 5, 25 μM in DMSO; final DMSO concentration 0.26%) were incubated with human liver microsomes (0.25 mg/mL) and NADPH (1 mM) in the presence of the probe substrate midazolam (2.5 μM) for 5 min at 37° C. The selective CYP3A4 inhibitor, ketoconazole, was screened alongside the test compounds as a positive control.
(§2) For the CYP1A incubations, the reactions were terminated by the addition of methanol, and the formation of the metabolite, resorufin, was monitored by fluorescence (excitation wavelength=535 nm, emission wavelength=595 nm). For the CYP2C9, CYP2C19, CYP2D6, and CYP3A4 incubations, the reactions were terminated by the addition of methanol containing internal standard. The samples were then centrifuged, and the supernatants were combined, for the simultaneous analysis of 4-hydroxytolbutamide, 4-hydroxymephenyloin, dextrorphan, and 1-hydroxymidazolam plus internal standard by LC-MS/MS using generic LC-MS/MS conditions. Formic acid in deionised water (final concentration=0.1%) was added to the final sample prior to analysis.

[3] = tested on: NCI-H460; assay: Alamar blue cytotoxicity assay NCI-H460; format: cell-based; settings: Homo sapiens, 72 hours, read-out: cellular cytotoxicity IC50 NCI-H460
Protocol: as §1

[4] = tested on: H460 non-small cell lung cancer (NSCLC) cell line; assay: Alamar blue cytotoxicity assay in H460 NSCLC tumour cell line; format: cell-based; settings: H460 cells, 72 hours, average of three independent experiments
Protocol: as §1, with “the H460 non-small” for “a range of”, “lung cancer (NSCLC) cell line.” for “lines.”, “follows: H460” for “follows:”, “(3000” for “(2-5000”, “RPMI” for “RPMI or DMEM”, “hours.” for “hours. Absorbance was measured on the Wallac Victor 2 1420 multi-label counter at 544-595 nm.”

[5] = tested on: H1650; assay: Alamar blue cytotoxicity assay H1650; format: cell-based; settings: Homo sapiens, NCI-H1650; 72 hours; read-out: cellular cytotoxicity IC50 H1650
Protocol: as §1

[6] = biological target: CDK2/cyclin A (Homo sapiens (Human), UniProt P24941); assay: In-vitro recombinant kinase assay CDK2/cyclin A; format: biochemical; settings: Table 2; average of duplicate points; read-out: CDK2/Cyclin A Average IC50
Protocol: (§3) To evaluate the in-vitro kinase potency of the compounds, they were screened against CDK 2 and CDK9. Kinase assays were performed in 96-well plates using recombinant CDK/cyclins generated at Cyclacel. Ltd Dundee, UK. CDK2 and CDK9 assays were performed in a total volume of 25 μl in assay buffer (25 mM b-glycerophosphate, 20 mM MOPS, 5 mM EGTA, 1 mM DTT and 1 mM NaVO3, pH 7.4), into which were added 2-4 μg of active enzyme with appropriate substrates (purified histone H1 for CDK2/cyclin E, and CDK2/cyclin A, biotinyl-Ahx-(YSPTSPS)4 for CDK9/cyclin T1). […] CDK2 reactions were stopped by addition of 25 μl of 75 mM phosphoric acid, followed by filtration through P81 filterplates (Whatman Polyfiltronics, Kent, UK). For CDK9, the reaction was stopped by addition of 25 μl of 75 mM phosphoric acid, then 5 μl of 10 mg/ml avidin was added to each well and further incubated for 2 min followed by filtration as per CDK2 assay. After washing 3 times with 75 mM orthophosphoric acid, plates were dried, scintillant added and incorporated radioactivity measured in a scintillation counter (TopCount, Packard Instruments, Pangbourne, Berks, UK). Compounds for kinase assay were made up as 10 mM stocks in DMSO and diluted into 10% DMSO in assay buffer.
as §3

[7] = tested on: H2052; assay: Alamar blue cytotoxicity assay H2052; format: cell-based; settings: Homo sapiens, NCI-H2052; 72 hours; read-out: cellular cytotoxicity IC50 H2052
Protocol: as §1

[8] = biological target: CYP2C19 (Homo sapiens (Human), UniProt P33261); assay: CYP2C19 inhibition, human liver microsomes, mephenyloin; format: in vitro ADME
Protocol: (§4) Six test compound concentrations (0.05, 0.25, 0.5, 2.5, 5, 25 μM in DMSO; final DMSO concentration=0.25%) were incubated with human liver microsomes (0.5 mg/mL) and NADPH (1 mM) in the presence of the probe substrate mephenyloin (25 μM) for 60 min at 37° C. The selective CYP2C19 inhibitor, tranylcypromine, was screened alongside the test compounds as a positive control.
as §2

[9] = tested on: A2780; assay: Alamar blue cytotoxicity assay A2780; format: cell-based; settings: Homo sapiens, 72 hours, read-out: cellular cytotoxicity IC50 A2780
Protocol: as §1

[10] = biological target: CYP2C9 (Homo sapiens (Human), UniProt P11712); assay: CYP2C9 inhibition, human liver microsomes, tolbutamide; format: in vitro ADME
Protocol: as §4, with “(1” for “(0.5”, “tolbutamide (120” for “mephenyloin (25”, “CYP2C9” for “CYP2C19”, “sulphaphenazole,” for “tranylcypromine,”
as §2

[11] = tested on: MDA-MB-436; assay: Alamar blue cytotoxicity assay MDA-MB-436; format: cell-based; settings: Homo sapiens, 72 hours, read-out: cellular cytotoxicity IC50 MDA-MB-436
Protocol: as §1

Sequence of CYP3A4 (P08684 whole entry): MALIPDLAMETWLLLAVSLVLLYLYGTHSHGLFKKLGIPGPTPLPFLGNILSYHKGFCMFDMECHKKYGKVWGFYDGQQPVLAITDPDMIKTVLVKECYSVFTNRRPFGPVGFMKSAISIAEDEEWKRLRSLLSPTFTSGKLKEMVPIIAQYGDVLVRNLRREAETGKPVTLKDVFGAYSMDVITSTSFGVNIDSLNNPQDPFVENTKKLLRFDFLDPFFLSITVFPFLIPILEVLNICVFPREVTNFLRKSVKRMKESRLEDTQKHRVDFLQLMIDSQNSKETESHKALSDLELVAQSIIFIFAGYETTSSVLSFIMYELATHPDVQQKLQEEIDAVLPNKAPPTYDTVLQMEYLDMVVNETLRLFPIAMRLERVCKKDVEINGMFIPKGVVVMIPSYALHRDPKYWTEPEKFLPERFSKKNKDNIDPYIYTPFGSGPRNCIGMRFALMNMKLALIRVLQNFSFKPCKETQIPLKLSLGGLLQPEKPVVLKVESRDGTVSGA
Sequence of CYP2C19 (P33261 whole entry): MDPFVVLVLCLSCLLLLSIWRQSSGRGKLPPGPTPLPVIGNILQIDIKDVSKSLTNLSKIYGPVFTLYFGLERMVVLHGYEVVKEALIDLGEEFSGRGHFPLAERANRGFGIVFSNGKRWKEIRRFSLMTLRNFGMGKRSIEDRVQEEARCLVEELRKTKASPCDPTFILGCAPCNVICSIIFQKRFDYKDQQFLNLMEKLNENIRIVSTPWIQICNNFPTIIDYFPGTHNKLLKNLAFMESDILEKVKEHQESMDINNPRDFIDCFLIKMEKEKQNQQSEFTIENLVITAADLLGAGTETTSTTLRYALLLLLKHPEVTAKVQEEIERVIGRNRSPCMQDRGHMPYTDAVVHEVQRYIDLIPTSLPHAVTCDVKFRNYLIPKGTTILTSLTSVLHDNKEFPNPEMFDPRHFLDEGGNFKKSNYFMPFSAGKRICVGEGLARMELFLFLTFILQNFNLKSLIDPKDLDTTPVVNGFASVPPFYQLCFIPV
Sequence of CYP2C9 (P11712 whole entry): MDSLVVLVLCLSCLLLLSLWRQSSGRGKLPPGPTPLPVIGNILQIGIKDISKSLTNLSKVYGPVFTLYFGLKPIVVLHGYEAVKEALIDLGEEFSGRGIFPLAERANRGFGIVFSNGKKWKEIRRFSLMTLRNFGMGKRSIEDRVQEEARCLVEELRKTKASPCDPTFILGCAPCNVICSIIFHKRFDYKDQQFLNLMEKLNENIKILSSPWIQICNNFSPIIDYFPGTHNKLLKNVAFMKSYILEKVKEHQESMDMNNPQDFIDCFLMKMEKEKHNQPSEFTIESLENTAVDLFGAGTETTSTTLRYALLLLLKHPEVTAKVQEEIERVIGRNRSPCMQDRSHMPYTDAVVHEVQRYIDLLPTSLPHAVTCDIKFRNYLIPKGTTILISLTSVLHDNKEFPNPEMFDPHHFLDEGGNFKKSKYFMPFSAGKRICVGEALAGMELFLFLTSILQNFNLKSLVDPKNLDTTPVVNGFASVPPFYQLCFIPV

CC[C@H](Nc1nc(NCc2cnc(C)cc2C)c2ncn(C(C)C)c2n1)[C@@H](C)O [Compound [1]]
IC50 [1]: 350 nM | CYP3A4-inhibiting concentration as multiple of cellular IC50 [2]: ~60 times | concentration up to which CYP3A4 is not inhibited [2]: greater than 20 μM | inhibition of CYP3A4 (in words) [2]: does not significantly inhibit CYP3A4 | IC50 ([2]; human liver microsomes): 22.5 µM | IC50 [3]: 500 nM | IC50 [4]: 500 nM | IC50 ([4]; Homo sapiens, NCI-H460, 72 h): < 1000 nM | IC50 [5]: 460 nM | IC50 [6]: 90 nM | IC50 [7]: 290 nM | IC50 [8]: > 25 µM | IC50 [9]: 410 nM | IC50 [10]: 23.8 µM | IC50 [11]: 440 nM

From patent publication US8592581B2, “Trisubstituted purine derivatives” (Cyclacel Limited, priority 2007, dated 2013)
